In patent US20240109896A1, “FGFR KINASE INHIBITOR AND USE THEREOF” (YA THERAPEUTICS INC, priority 2021, published 2024) one finds IC50 data, which are given here for 22 compounds.

Where two headings read alike, the source gives them in different places.

One assay deals with FGFR2 (Homo sapiens, UniProt P21802). In words: In vitro activity inhibition test for kinase FGFR2. Format: biochemical. The conditions noted are these: kinase assay, 25° C.; read-out: Inhibition of separase IC50 (nM) FGFR2.
FGFR2, sequence (P21802 22-821): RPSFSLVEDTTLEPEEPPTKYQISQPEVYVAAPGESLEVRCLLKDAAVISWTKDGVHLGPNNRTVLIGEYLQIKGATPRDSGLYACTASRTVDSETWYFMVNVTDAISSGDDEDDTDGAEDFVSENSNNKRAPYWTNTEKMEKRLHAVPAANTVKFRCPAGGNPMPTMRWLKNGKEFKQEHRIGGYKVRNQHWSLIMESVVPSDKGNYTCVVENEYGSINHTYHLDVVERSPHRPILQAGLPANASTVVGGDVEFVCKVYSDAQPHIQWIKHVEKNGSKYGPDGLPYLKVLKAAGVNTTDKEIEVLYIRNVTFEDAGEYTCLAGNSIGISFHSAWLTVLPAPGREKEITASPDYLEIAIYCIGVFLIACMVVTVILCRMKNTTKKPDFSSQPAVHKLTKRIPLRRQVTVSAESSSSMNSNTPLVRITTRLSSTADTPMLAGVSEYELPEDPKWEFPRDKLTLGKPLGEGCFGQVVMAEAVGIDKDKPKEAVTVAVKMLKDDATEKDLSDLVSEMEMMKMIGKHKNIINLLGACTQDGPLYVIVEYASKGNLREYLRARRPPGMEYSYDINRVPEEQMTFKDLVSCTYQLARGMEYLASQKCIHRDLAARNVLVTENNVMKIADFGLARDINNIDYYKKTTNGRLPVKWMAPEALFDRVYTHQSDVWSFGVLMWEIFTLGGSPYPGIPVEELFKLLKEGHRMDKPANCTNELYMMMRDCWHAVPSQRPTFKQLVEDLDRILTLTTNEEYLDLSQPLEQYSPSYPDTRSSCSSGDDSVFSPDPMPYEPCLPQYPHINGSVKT
Another assay concerns the target FGFR1 (Homo sapiens, UniProt P11362). In words: In vitro activity inhibition test for kinase FGFR1.
The target in another assay is FGFR3 (Homo sapiens, UniProt P22607). The assay can be described thus: In vitro activity inhibition test for kinase FGFR3.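 Further: FGFR3 kinase activity read by Caliper mobility shift assay, compounds run as 10-point 4-fold dilution series, final DMSO 0.5%.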
FGFR3, sequence (P22607 23-806): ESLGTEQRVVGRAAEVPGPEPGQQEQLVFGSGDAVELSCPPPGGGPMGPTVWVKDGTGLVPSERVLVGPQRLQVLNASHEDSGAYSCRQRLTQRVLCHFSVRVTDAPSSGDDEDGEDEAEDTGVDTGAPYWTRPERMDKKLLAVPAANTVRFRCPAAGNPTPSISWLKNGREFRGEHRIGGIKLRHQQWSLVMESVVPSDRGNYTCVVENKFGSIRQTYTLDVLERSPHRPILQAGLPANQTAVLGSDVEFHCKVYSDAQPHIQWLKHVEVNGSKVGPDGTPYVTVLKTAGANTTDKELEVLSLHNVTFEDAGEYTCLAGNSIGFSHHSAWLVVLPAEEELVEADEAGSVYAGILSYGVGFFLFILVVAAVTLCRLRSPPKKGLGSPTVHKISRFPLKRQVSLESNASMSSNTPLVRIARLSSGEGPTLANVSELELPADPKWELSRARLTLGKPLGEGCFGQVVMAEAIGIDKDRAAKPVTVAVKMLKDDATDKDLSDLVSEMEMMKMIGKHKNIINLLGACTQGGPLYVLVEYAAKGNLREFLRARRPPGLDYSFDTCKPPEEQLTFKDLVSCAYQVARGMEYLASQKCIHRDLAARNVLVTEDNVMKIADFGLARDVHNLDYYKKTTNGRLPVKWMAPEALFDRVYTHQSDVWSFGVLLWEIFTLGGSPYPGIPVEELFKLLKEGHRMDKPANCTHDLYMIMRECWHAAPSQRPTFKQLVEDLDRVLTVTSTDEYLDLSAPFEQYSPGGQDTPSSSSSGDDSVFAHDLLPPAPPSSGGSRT
For another assay, the target named is FGFR4 (Homo sapiens, UniProt P22455). In words: In vitro activity inhibition test for kinase FGFR4.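 Further: caliper mobility shift assay of FGFR4 kinase activity, compounds tested as 10-point 4-fold dilution series with 0.5% DMSO final.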
FGFR4, sequence (P22455 22-802): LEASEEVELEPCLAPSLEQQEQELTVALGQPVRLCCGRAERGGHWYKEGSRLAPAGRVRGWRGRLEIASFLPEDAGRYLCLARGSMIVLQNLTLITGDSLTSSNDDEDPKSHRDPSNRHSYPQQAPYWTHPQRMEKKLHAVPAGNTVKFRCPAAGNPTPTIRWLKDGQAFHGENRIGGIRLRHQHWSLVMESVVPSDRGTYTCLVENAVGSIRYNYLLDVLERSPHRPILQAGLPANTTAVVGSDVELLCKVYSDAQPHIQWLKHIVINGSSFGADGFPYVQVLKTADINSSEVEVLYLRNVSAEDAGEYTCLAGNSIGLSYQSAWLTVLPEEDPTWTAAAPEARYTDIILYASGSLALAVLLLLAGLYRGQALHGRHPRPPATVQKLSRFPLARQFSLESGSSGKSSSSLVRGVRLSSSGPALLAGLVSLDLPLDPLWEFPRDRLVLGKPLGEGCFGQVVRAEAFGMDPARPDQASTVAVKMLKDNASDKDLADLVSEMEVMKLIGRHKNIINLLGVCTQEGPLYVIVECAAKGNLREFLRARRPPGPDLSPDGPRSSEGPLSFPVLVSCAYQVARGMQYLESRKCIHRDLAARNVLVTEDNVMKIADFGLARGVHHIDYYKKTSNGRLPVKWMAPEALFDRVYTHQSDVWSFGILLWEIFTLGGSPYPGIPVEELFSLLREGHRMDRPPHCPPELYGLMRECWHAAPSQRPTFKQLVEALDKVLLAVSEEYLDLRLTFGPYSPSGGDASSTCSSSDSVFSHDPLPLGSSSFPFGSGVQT
Setting [1] is: read-out: Inhibition of FGFR1 IC50 (nM) FGFR1, kinase assay, 25° C.
The mark [2] stands for this setting: read-out: Inhibition IC50 (nM) FGFR3, kinase assay, 25° C.
The mark [3] stands for this setting: read-out: Inhibition of kinase IC50 (nM) FGFR4, kinase assay, 25° C.

FGFR1, sequence (P11362 22-822): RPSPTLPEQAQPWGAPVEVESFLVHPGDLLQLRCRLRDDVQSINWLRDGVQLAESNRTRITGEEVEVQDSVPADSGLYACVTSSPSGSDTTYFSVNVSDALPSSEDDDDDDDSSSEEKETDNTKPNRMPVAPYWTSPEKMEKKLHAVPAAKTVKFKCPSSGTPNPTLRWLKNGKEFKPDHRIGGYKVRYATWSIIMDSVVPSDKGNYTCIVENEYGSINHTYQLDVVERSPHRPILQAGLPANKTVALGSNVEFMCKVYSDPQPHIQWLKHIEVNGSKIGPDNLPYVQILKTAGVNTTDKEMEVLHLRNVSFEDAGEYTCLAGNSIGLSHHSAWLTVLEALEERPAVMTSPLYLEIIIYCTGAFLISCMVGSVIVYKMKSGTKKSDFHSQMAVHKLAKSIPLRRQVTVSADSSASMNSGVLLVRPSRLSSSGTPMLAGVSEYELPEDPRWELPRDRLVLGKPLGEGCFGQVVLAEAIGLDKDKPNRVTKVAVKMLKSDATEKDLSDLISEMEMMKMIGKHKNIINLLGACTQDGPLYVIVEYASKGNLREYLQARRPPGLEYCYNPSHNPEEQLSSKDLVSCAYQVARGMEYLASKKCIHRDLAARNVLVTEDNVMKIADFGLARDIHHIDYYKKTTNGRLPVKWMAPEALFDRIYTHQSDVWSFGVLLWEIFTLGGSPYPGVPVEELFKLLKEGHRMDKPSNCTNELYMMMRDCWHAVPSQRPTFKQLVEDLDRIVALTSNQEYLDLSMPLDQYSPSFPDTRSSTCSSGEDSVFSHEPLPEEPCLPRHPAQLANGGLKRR
Protocol for FGFR1: (§1) In Vitro Activity Inhibition Test for Kinases FGFR1, FGFR2, FGFR3 and FGFR4
(§2) The activity of FGFR1, FGFR2, FGFR3 and FGFR4 protein kinases was determined by Caliper mobility shift assay. Perform a 4-fold gradient dilution from a working concentration of 0.2 mM in DMSO, diluting 10 concentrations. Add 2 μL of compound to 78 μL of 1× compound buffer. There were 10 points each for the negative control and the positive control. Shake the board on the rocker for 20 min. […] The final concentration of DMSO was 0.5%.
Protocol for FGFR3: as §1, §2
Protocol for FGFR4: as §1, §2

One may read the IC50 as the point on the concentration scale where inhibition reaches its midpoint. As for `C=CC(=O)N1CCC2(CC1)CC(Nc1nc(N)c(C(N)=O)c(C#Cc3cc(OC)cc(OC)c3)n1)C2` [Compound 9, 2-((7-acryloyl-7-azaspiro[3.5]nonan-2-yl)amino)-4-amino-6-((3,5-dimethoxyphenyl)ethynyl)pyrimidine-5-carboxamide], the concentration for half-maximal inhibition (IC50) at FGFR2 fell in the range of 10 to 100 nM; against FGFR1, 100 to 500 nM; against FGFR3 it was 10 to 100 nM; against FGFR4, 100 to 500 nM.

With `C=CC(=O)N1CC[C@H](Nc2nc(N)c(C(N)=O)c(C#Cc3cc(OC)cc(OC)c3)n2)C1` [Compound 6, (S)-2-((1-acryloylpyrrolidin-3-yl)amino)-4-amino-6-((3,5-dimethoxyphenyl)ethynyl)pyrimidine-5-carboxamide], the IC50 on FGFR2, against FGFR1, against FGFR3 and against FGFR4 was less than 10 nM throughout.

`C=CC(=O)N1CC[C@H](Nc2ncc(C(F)(F)F)c(C#Cc3cc(OC)cc(OC)c3)n2)C1` [Compound 4, (S)-1-(3-((4-((3,5-dimethoxyphenyl)ethynyl)-5-(trifluoromethyl)pyrimidin-2-yl)amino)pyrrolidin-1-yl)prop-2-en-1-one]: the IC50 at FGFR2 lay within 100 to 500 nM; against FGFR1, 10 to 100 nM; at FGFR3, 10 to 100 nM; on FGFR4 it was 10 to 100 nM.

Take `CC#CC(=O)N1CC[C@H](n2cc(C#Cc3cc(OC)cc(OC)c3)c3c(N)n[nH]c(=O)c32)C1` [Compound 23, (S)-4-amino-1-(1-(but-2-ynoyl)pyrrolidin-3-yl)-3-((3,5-dimethoxyphenyl)ethynyl)-1,6-dihydro-7H-pyrrolo[2,3-d]pyridazin-7-one]: the 50% inhibitory concentration (IC50) on FGFR2, against FGFR1, on FGFR3 and at FGFR4 was less than 10 nM throughout.

On to `CC#CC(=O)N1CCC[C@H](n2nc(C#Cc3cc(OC)cc(OC)c3)c3c(N)n[nH]c(=O)c32)C1` [Compound 25, (S)-4-amino-1-(1-(but-2-ynoyl)piperidin-3-yl)-3-((3,5-dimethoxyphenyl)ethynyl)-1,6-dihydro-7H-pyrazolo[3,4-d]pyridazin-7-one], for which the IC50 on FGFR2, against FGFR1, on FGFR3 and against FGFR4 was less than 10 nM each time.

For the compound `C=CC(=O)N1CC[C@H](Nc2ncc(Br)c(C#Cc3cc(OC)cc(OC)c3)n2)C1` [Compound 2, (S)-1-(3-((5-bromo-4-((3,5-dimethoxyphenyl)ethynyl)pyrimidin-2-yl)amino)pyrrolidin-1-yl)prop-2-en-1-one], the IC50 is 10 to 100 nM on FGFR2, 10 to 100 nM against FGFR1, 100 to 500 nM against FGFR3 and 100 to 500 nM against FGFR4.

On to `C=CC(=O)N1CC[C@H](n2cc(-c3cc4ccccc4n3C)c3c(N)n[nH]c(=O)c32)C1` [Compound 40, (S)-1-(1-acryloylpyrrolidin-3-yl)-4-amino-3-(1-methyl-1H-indol-2-yl)-1,6-dihydro-7H-pyrrolo[2,3-d]pyridazin-7-one], for which the IC50 on FGFR2, against FGFR1, against FGFR3 and on FGFR4 was less than 10 nM each time.

On to `CC#CC(=O)N1CC[C@H](n2nc(C#Cc3cc(OC)cc(OC)c3)c3c(N)n[nH]c(=O)c32)C1` [Compound 27, (S)-4-amino-1-(1-(but-2-ynoyl)pyrrolidin-3-yl)-3-((3,5-dimethoxyphenyl)ethynyl)-1,6-dihydro-7H-pyrazolo[3,4-d]pyridazin-7-one], for which the IC50 on FGFR2, at FGFR1, against FGFR3 and against FGFR4 was less than 10 nM in each case.

Take “(S)-4-amino-1-(1-(but-2-ynoyl)pyrrolidin-3-yl)-3-((2,6-difluoro-3,5-dimethoxyphenyl)ethynyl)-1,6-dihydro-7H-pyrazolo[3,4-d]pyridazin-7-one [Compound 29]”: the IC50 at FGFR2, at FGFR1 (setting [1]), on FGFR3 (setting [2]) and on FGFR4 (setting [3]) was less than 10 nM in each case.

Take `C=CC(=O)N1CCC[C@H](Nc2nc(N)c(C(N)=O)c(C#Cc3cc(OC)cc(OC)c3)n2)C1` [Compound 11, (S)-2-((1-acryloylpiperidin-3-yl)amino)-4-amino-6-((3,5-dimethoxyphenyl)ethynyl)pyrimidine-5-carboxamide]: the IC50 fell in the range of 10 to 100 nM at FGFR2, 10 to 100 nM at FGFR1, 100 to 500 nM on FGFR3 and 10 to 100 nM against FGFR4.

Take `C=CC(=O)N1CCC(Nc2nc(N)c(C(N)=O)c(C#Cc3cc(OC)cc(OC)c3)n2)CC1` [Compound 10, 2-((1-acryloylpiperidin-4-yl)amino)-4-amino-6-((3,5-dimethoxyphenyl)ethynyl)pyrimidine-5-carboxamide]: the IC50 at FGFR2 fell in the range of 10 to 100 nM; against FGFR1 it was 10 to 100 nM; at FGFR3, 100 to 500 nM; on FGFR4, 10 to 100 nM.

For the compound `C=CC(=O)N1CC[C@H](Nc2ncc(C(N)=O)c(C#Cc3cc(OC)cc(OC)c3)n2)C1` [Compound 16, (S)-2-((1-acryloylpyrrolidin-3-yl)amino)-4-((3,5-dimethoxyphenyl)ethynyl)pyrimidine-5-carboxamide], the IC50 at FGFR2 is less than 10 nM; against FGFR1 it was less than 10 nM; on FGFR3, 10 to 100 nM; at FGFR4, 10 to 100 nM.

Consider `C=CC(=O)N[C@H]1CCN(c2nc(N)c(C(N)=O)c(C#Cc3cc(OC)cc(OC)c3)n2)C1` [Compound 17, (S)-2-(3-acrylamidopyrrolidin-1-yl)-4-amino-6-((3,5-dimethoxyphenyl)ethynyl)pyrimidine-5-carboxamide], for which the IC50 on FGFR2, against FGFR1, on FGFR3 and at FGFR4 was less than 10 nM each time.

`C=CC(=O)N1CC[C@@H](Nc2nc(N)c(C(N)=O)c(C#Cc3cc(OC)cc(OC)c3)n2)C1` [Compound 15, (R)-2-((1-acryloylpyrrolidin-3-yl)amino)-4-amino-6-((3,5-dimethoxyphenyl)ethynyl)pyrimidine-5-carboxamide]: the IC50 on FGFR2, at FGFR1, against FGFR3 and against FGFR4 was less than 10 nM in each case.

Turning to `CC#CC(=O)N1CC[C@H](Nc2nc(N)c(C(N)=O)c(C#Cc3cc(OC)cc(OC)c3)n2)C1` [Compound 12, (S)-4-amino-2-((1-(but-2-ynoyl)pyrrolidin-3-yl)amino)-6-((3,5-dimethoxyphenyl)ethynyl)pyrimidine-5-carboxamide], the IC50 at FGFR2, against FGFR1, against FGFR3 and against FGFR4 was less than 10 nM each time.

For `C=CC(=O)N1CC[C@H](n2cc(-c3cc4ccccc4o3)c3c(N)n[nH]c(=O)c32)C1` [Compound 41, (S)-1-(1-acryloylpyrrolidin-3-yl)-4-amino-3-(benzofuran-2-yl)-1,6-dihydro-7H-pyrrolo[2,3-d]pyridazin-7-one], the IC50 at FGFR2, against FGFR1, against FGFR3 and against FGFR4 was less than 10 nM throughout.

For “2-(1-acryloylpyrrolidin-3-yl)-4-((3,5-dimethoxyphenyl)ethynyl)pyrimidine-5-carboxamide [Compound 19]”, the IC50 at FGFR2, on FGFR1 (setting [1]), at FGFR3 (setting [2]) and on FGFR4 (setting [3]) was less than 10 nM each time.

As for `CC#CC(=O)N1CC[C@H](Nc2ncc(C(F)(F)F)c(C#Cc3cc(OC)cc(OC)c3)n2)C1` [Compound 14, (S)-1-(3-((4-((3,5-dimethoxyphenyl)ethynyl)-5-(trifluoromethyl)pyrimidin-2-yl)amino)pyrrolidin-1-yl)but-2-yn-1-one], the concentration for half-maximal inhibition (IC50) was 10 to 100 nM on FGFR2, 10 to 100 nM at FGFR1, 100 to 500 nM on FGFR3 and 10 to 100 nM against FGFR4.

In the case of `C=CC(=O)N1CC[C@H](Nc2ncc(F)c(C#Cc3cc(OC)cc(OC)c3)n2)C1` [Compound 3, (S)-1-(3-((4-((3,5-dimethoxyphenyl)ethynyl)-5-fluoropyrimidin-2-yl)amino)pyrrolidin-1-yl)prop-2-en-1-one], the half-inhibitory concentration (IC50) at FGFR2, against FGFR1, at FGFR3 and at FGFR4 was 10 to 100 nM each time.

On to `C=CC(=O)N1CC[C@H](Nc2nccc(C#Cc3cc(OC)cc(OC)c3)n2)C1` [Compound 1, (S)-1-(3-((4-((3,5-dimethoxyphenyl)ethynyl)pyrimidin-2-yl)amino)pyrrolidin-1-yl)prop-2-en-1-one], for which the IC50 on FGFR2 lay in the range of 10 to 100 nM; on FGFR1, 10 to 100 nM; against FGFR3 it was 100 to 500 nM; at FGFR4 it was 10 to 100 nM.

On to `CC#CC(=O)N1CCC[C@H](n2cc(C#Cc3cc(OC)cc(OC)c3)c3c(N)n[nH]c(=O)c32)C1` [Compound 21, (S)-4-amino-1-(1-(but-2-ynoyl)piperidin-3-yl)-3-((3,5-dimethoxyphenyl)ethynyl)-1,6-dihydro-7H-pyrrolo[2,3-d]pyridazin-7-one], for which the half-inhibitory concentration (IC50) at FGFR2, against FGFR1, against FGFR3 and against FGFR4 was less than 10 nM in each case.

`C=CC(=O)N1CC[C@H](n2cc(-c3ccc4ccccc4c3)c3c(N)n[nH]c(=O)c32)C1` [Compound 43, (S)-1-(1-acryloylpyrrolidin-3-yl)-4-amino-3-(naphthalen-2-yl)-1,6-dihydro-7H-pyrrolo[2,3-d]pyridazin-7-one]: the IC50 at FGFR2, against FGFR1, on FGFR3 and at FGFR4 was less than 10 nM each time.
